Measurements taken from ChEMBL document CHEMBL1145977, “Synthesis and dopamine receptor modulating activity of 3-substituted gamma-lactam peptidomimetics of L-prolyl-L-leucyl-glycinamide” (J Med Chem, 2003).

What was measured:
Assay type in all cases: functional
Bos taurus = species on record: Bos taurus; test: Percent enhancement of [3H]NPE binding to bovine striatal membranes at 100 nM concentration; conditions: Striatum, Membrane
[1] = molecular target: T1, Dopamine receptor (Rattus norvegicus) (UniProt P25115+P19020+P30729+P18901+P61169); test: Dopamine receptor modulating activity of compound was evaluated by rat nigrostriatal 6-hydroxydopamine lesion rotation model at dose of 0.1 ug/kg given intraperitoneally
[2] = molecular target: T1, Dopamine receptor (Rattus norvegicus); test: Dopamine receptor modulating activity of compound was evaluated by rat nigrostriatal 6-hydroxydopamine lesion rotation model at dose of 1 ug/kg given intraperitoneally

Row | SMILES | Enhancement (Bos taurus) [%] | other results
1 | CC(C)C[C@@]1(NC(=O)[C@@H]2CCCN2)CCN(CC(N)=O)C1=O | 59 | –
2 | NC(=O)[C@H]1CS[C@@H]2C[C@@H](NC(=O)[C@@H]3CCCN3)C(=O)N12 | – | Enhancement [1]: 23%
3 | NC(=O)CN1CC[C@@](Cc2ccccc2)(NC(=O)[C@@H]2CCCN2)C1=O | 116 | –
4 | CCCC[C@@]1(NC(=O)[C@@H]2CCCN2)C[C@H]2SC[C@H](C(N)=O)N2C1=O | – | Enhancement [1]: 56%
5 | NC(=O)CN1CC[C@@H](NC(=O)[C@@H]2CCCN2)C1=O | 36 | –
6 | NC(=O)[C@H]1CS[C@@H]2C[C@@](Cc3ccccc3)(NC(=O)[C@@H]3CCCN3)C(=O)N12 | – | Enhancement [2]: 30%
7 | CC(C)C[C@@]1(NC(=O)[C@@H]2CCCN2)C[C@H]2SC[C@H](C(N)=O)N2C1=O | – | Enhancement [2]: 44%
8 | CCCC[C@@]1(NC(=O)[C@@H]2CCCN2)CCN(CC(N)=O)C1=O | 89 | –
